Measurements published in patent US20250340510A1, “Substituted Phenylbenzenesulfonamide Derivatives and Uses Thereof” (Nine Square Therapeutics Corporation, priority 2022, published 2025).

What was measured:
[1] = tested on: TFEB; experiment: TFEB translocation assay in HeLa cells (nuclear to cytoplasmic TFEB ratio, high-content imaging); assay type: cell-based; conditions: Homo sapiens, 1.5 h, 90 mins incubation at 37° C., ratio of nuclear to cytoplasmic TFEB
Protocol: Example B2. TFEB Translocation Assay
Rabbit TFEB antibody, Cell Signaling Technology #4240S
PFA 16% MeOH-free, Election Microscopy Sciences #50-980-487
HCS CellMask Deep Red, ThermoFisher Scientific #H32721
Plates: Perkin Elmer Phenoplate #605730 black optically clear, tissue culture treated 384-well plate
Example B2.2 Method, Day 1: Cells Seeded in 384WP
Cells were seeded in the afternoon. The outer one row of the plate was not used to avoid outer well edge effects.
HeLa cells were detached using trypsin, and the cells were counted using a cell counter.
4000 HeLa cells were seeded per well in […] growth media (DMEM with 10% FBS, 1 mM sodium pyruvate and Pen-Strep).
Example B2.3 Method, Day 2: Assay with TRPML1 Compounds+Staining
Compounds were added to cells using a Tecan D300e dispenser.
Cells were incubated for 90 mins at 37° C. with the compounds (compound range: 80 nM-[…] (2× step dilution—8 dilution steps, 3 replicates per condition)
The cells were fixed by adding 16.5 μL of 16% PFA (4% final) and incubating for 15 min at room temperature.
The cells were washed with 3× in PBS-TX (PBS+0.1% Triton X-100)−1×100 μL followed by 2×50 μL.
The cells were blocked and permeabilized in 30 μL of blocking buffer (PBS-TX+5% goat serum) for 1 h.
The cells were incubated with TFEB antibody (1:200, CST 4240S) in 30 μL blocking buffer overnight at 4° C. The plates were kept damp to avoid evaporation.
Example B2.4 Method, Day 3: Staining+Imaging
The cells were washed 3× in PBS-TX—3×100 μL with a Biotek EL406 washer.
The cells were incubated with Goat anti-Rb Alexa-Fluor 488 (1:2000), cell mask (1:10,000) and Hoechst (1:10,000) in 30 μL blocking buffer for 1 h at room temperature. The solution was dispensed using a 5 μL peristaltic cassette (EL406).
The cells were washed 3× in PBS-TX—3×100 μL with a EL406 washer, then […] PBS was dispensed using a 5 μL peristaltic cassette (EL406).
The cells were imaged on an Operetta CLS High-content imaging system using a 20× water immersion objective (NA 1.0) the same day.
Image analysis was performed using Harmony V4.9 (Perkin Elmer). Briefly, nuclei were segmented from background-corrected images using Hoechst intensity, and cell body segmented using HCS CellMask DeepRed. A sliding parabola filter was applied to the AlexaFluor 488 channel (TFEB), before sum pixel intensity in the nuclear and cytoplasmic regions was calculated. A ratio of nuclear to cytoplasmic TFEB was used to define TFEB translocation from the cytosolic to nuclear compartment. The EC50 values derived by fitting the data to a sigmoidal dose response curve using Prism 9 (Graphpad).

[2] = target: TRPML1 (Homo sapiens, UniProt Q9GZU1); experiment: Calcium flux in HEK293 overexpressing TRPML1 plasma membrane variant (FLIPR, Calcium 6 dye); assay type: cell-based; conditions: HEK293/TRPML1-PM clone A5 cells; 4-parameter logistic fit; read-out: TRPML1 calcium flux (FLIPR) dose response: EC50
Description: Example B1. Calcium Flux in HEK293 Overexpressing TRPML1 Plasma Membrane Variant—Calcium 6 Dye
Cells: HEK293/TRPML1-PM clone A5, clonal cell line containing mutant TRPML1 (both N- and C-terminal dileucine targeting motifs deleted) that localizes to the plasma membrane
Plates: Perkin Elmer Viewplate cat. #6007460, black optically clear, tissue culture treated 384-well plate
Calcium dye: Molecular Devices FLIPR Calcium 6 Assay Kit, cat. #R8190 or Fluo-4 Direct from Thermo Fisher, cat. #F10471
Tips: Molecular Devices 384-well FLIPR Tetra black tips, cat. #9000-0764 Example B1.2 Method
HEK293/TRPML1-PM clone A5 cells were trypsinized from flasks, counted, then diluted in media to 15,000 cells per 25 μL, and seeded into a black, 384-well viewplate, and cultured overnight.
One vial of calcium 6 dye was diluted with 10 mL of assay buffer (HBSS+20 mM HEPES pH 7.4) and 25 μL of the dilution was added per well to the cells.
After incubating for 2 hours at 37° C., the plate was moved to the FLIPR in the read position.
The compounds were diluted in EMEM with 0.125% FBS to 5× concentration and loaded in a 384-well plate according to the desired plate map for the assay, including DMSO alone and carbachol controls, then the plate was moved to the FLIPR in the source 2 position.
A box of tips was placed in the source 1 position within the FLIPR to complete the assay set up.
Once the run was started, an initial baseline fluorescent measurement was performed for 10 seconds (470-495 nm excitation and 515-575 nm emission) prior to adding the compounds.
12.5 μL of 5× test compound, DMSO alone, or carbachol were added via the FLIPR and real-time fluorescence measurements were performed for an additional 170 seconds with 1 read per second.
The data was normalized to baseline by calculating maximum fluorescence minus minimum fluorescence and plotted as response (fold) over the baseline versus log ([…] concentration). The EC50 was determined using a 4-parameter logistic curve fit in Graphpad Prism 9.

Chain of TRPML1 (Q9GZU1 17-572 limits assumed): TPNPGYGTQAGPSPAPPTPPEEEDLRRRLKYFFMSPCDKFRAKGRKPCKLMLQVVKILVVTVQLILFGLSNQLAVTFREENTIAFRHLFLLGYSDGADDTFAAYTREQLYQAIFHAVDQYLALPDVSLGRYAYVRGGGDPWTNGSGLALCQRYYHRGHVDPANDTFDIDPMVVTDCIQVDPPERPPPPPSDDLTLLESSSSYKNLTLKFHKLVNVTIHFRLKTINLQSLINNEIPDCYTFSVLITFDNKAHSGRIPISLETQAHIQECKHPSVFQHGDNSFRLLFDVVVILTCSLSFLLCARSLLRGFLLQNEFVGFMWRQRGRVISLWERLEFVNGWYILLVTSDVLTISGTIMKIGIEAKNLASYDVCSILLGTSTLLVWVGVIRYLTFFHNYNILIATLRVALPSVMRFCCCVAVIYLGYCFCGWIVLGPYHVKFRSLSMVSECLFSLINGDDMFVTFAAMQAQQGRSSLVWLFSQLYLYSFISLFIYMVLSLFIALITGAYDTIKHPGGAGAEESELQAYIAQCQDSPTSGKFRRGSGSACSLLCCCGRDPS

SMILES | EC50 ([1]; HeLa) | EC50 [2] | EC50 [1]
CC(C)CCN(C)c1ccccc1NS(=O)(=O)c1ccc(S(=O)(=O)N(C)C)cc1 [Compound 6, N1-(2-(isopentyl(methyl)amino)phenyl)-N4,N4-dimethylbenzene-1,4-disulfonamide] | 4860 nM | 290 nM | 
CN(CC1(C)CCOCC1)c1ccccc1NS(=O)(=O)c1ccc(S(=O)(=O)N(C)C)cc1 [Compound 10, N1,N1-dimethyl-N4-(2-(methyl((4-methyltetrahydro-2H-pyran-4-yl)methyl)amino)phenyl)benzene-1,4-disulfonamide] | 2340 nM | 870 nM | 
CN(c1c(F)cccc1NS(=O)(=O)c1ccc(S(=O)(=O)N(C)C)cc1)C1CCCCC1 [Compound 12, N1-(2-(cyclohexyl(methyl)amino)-3-fluorophenyl)-N4,N4-dimethylbenzene-1,4-disulfonamide] | < 80 nM | 720 nM | 
CN(Cc1ccsc1)c1ccccc1NS(=O)(=O)c1ccc(S(=O)(=O)N(C)C)cc1 [Compound 13, N1,N1-dimethyl-N4-(2-(methyl(thiophen-3-ylmethyl)amino)phenyl)benzene-1,4-disulfonamide] | 1350 nM | 670 nM | 
CN(CC1CC1)c1ccccc1NS(=O)(=O)c1ccc(S(=O)(=O)N(C)C)cc1 [Compound 14, N1-(2-((cyclopropylmethyl) (methyl)amino)phenyl)-N4,N4-dimethylbenzene-1,4-disulfonamide] | 2030 nM | 1560 nM | 
CN(c1ccccc1NS(=O)(=O)c1ccc(S(=O)(=O)N(C)C)cc1)C1(C)CCCCC1 [Compound 17, N1,N1-dimethyl-N4-(2-(methyl(1-methylcyclohexyl)amino)phenyl)benzene-1,4-disulfonamide] | 450 nM | 190 nM | 
CN(c1ccccc1NS(=O)(=O)c1ccc(S(=O)(=O)N(C)C)cc1)C1CCOC1 (centres unmarked) [Compound 18, N1,N1-dimethyl-N4-(2-(methyl(tetrahydrofuran-3-yl)amino)phenyl)benzene-1,4-disulfonamide] | > 9900 nM | 1140 nM | 
CN(c1ccccc1NS(=O)(=O)c1ccc(S(=O)(=O)N(C)C)cc1)C1CCC(C)(C)C1 (centres unmarked) [Compound 20, N1-(2-((3,3-dimethylcyclopentyl)(methyl)amino)phenyl)-N4,N4-dimethylbenzene-1,4-disulfonamide] | 270 nM | 260 nM | 
CN(CC1CCCCC1)c1ccccc1NS(=O)(=O)c1ccc(S(=O)(=O)N(C)C)cc1 [Compound 23, N1-(2-((cyclohexylmethyl)(methyl)amino)phenyl)-N4,N4-dimethylbenzene-1,4-disulfonamide] | 200 nM | 410 nM | 
CN(c1ccccc1NS(=O)(=O)c1ccc(S(=O)(=O)N(C)C)cc1)C1CCCC1 [Compound 24, N1-(2-(cyclopentyl(methyl)amino)phenyl)-N4,N4-dimethylbenzene-1,4-disulfonamide] | 1870 nM | 280 nM | 
CN(CC1CCCC1)c1ccccc1NS(=O)(=O)c1ccc(S(=O)(=O)N(C)C)cc1 [Compound 25, N1-(2-((cyclopentylmethyl)(methyl)amino)phenyl)-N4,N4-dimethylbenzene-1,4-disulfonamide] | 540 nM | 420 nM | 
CN(Cc1ccccc1)c1ccccc1NS(=O)(=O)c1ccc(S(=O)(=O)N(C)C)cc1 [Compound 26, N1-(2-(benzyl(methyl)amino)phenyl)-N4,N4-dimethylbenzene-1,4-disulfonamide] | 830 nM | 300 nM | 
CN(C)S(=O)(=O)c1ccc(S(=O)(=O)Nc2ccccc2N(C)[C@H]2CC[C@H](C)CC2)cc1 [Compound 28, N1,N1-dimethyl-N4-(2-(methyl((1r,4r)-4-methylcyclohexyl)amino)phenyl)benzene-1,4-disulfonamide] | 1100 nM | 350 nM | 
CN(c1ccccc1NS(=O)(=O)c1ccc(S(=O)(=O)N(C)C)cc1)C1CCC(C)(C)CC1 [Compound 29, N1-(2-((4,4-dimethylcyclohexyl)(methyl)amino)phenyl)-N4,N4-dimethylbenzene-1,4-disulfonamide] | 2270 nM | 510 nM | 
CN(C)S(=O)(=O)c1ccc(S(=O)(=O)Nc2ccccc2N(C)[C@H]2CC[C@@H](C)CC2)cc1 [Compound 30, N1,N1-dimethyl-N4-(2-(methyl((1s,4s)-4-methylcyclohexyl)amino)phenyl)benzene-1,4-disulfonamide] | 1170 nM | 360 nM | 
CN(CC1(C)COC1)c1ccccc1NS(=O)(=O)c1ccc(S(=O)(=O)N(C)C)cc1 [Compound 49, N1,N1-dimethyl-N4-(2-(methyl((3-methyloxetan-3-yl)methyl)amino)phenyl)benzene-1,4-disulfonamide] |  | 1140 nM | 7970 nM
CN(Cc1cncs1)c1ccccc1NS(=O)(=O)c1ccc(S(=O)(=O)N(C)C)cc1 [Compound 55, N1,N1-dimethyl-N4-(2-(methyl(thiazol-5-ylmethyl)amino)phenyl)benzene-1,4-disulfonamide] | 870 nM | 250 nM | 
CN(Cc1cscn1)c1c(Cl)cccc1NS(=O)(=O)c1ccc(S(=O)(=O)N(C)C)cc1 [Compound 64, N1-(3-chloro-2-(methyl(thiazol-4-ylmethyl)amino)phenyl)-N4,N4-dimethylbenzene-1,4-disulfonamide] | 1390 nM | 453 nM | 
CN(CC12CC(C)(C1)C2)c1ccccc1NS(=O)(=O)c1ccc(S(=O)(=O)N(C)C)cc1 [Compound 65, N1,N1-dimethyl-N4-(2-(methyl((3-methylbicyclo[1.1.1]pentan-1-yl)methyl)amino)phenyl)benzene-1,4-disulfonamide] | 396 nM | 319 nM | 
CN(CC12CC(C1)C2)c1ccccc1NS(=O)(=O)c1ccc(S(=O)(=O)N(C)C)cc1 [Compound 66, N1-(2-((bicyclo[1.1.1]pentan-1-ylmethyl)(methyl)amino)phenyl)-N4,N4-dimethylbenzene-1,4-disulfonamide] | 927 nM | 236 nM | 
CC(C)CCN(C)c1c(Cl)cccc1NS(=O)(=O)c1ccc(S(=O)(=O)N(C)C)cc1 [Compound 67, N1-(3-chloro-2-(isopentyl(methyl)amino)phenyl)-N4,N4-dimethylbenzene-1,4-disulfonamide] | 353 nM | 420 nM | 
CN(CCC1CCOCC1)c1ccccc1NS(=O)(=O)c1ccc(S(=O)(=O)N(C)C)cc1 [Compound 114, N1,N1-dimethyl-N4-(2-(methyl(2-(tetrahydro-2H-pyran-4-yl)ethyl)amino)phenyl)benzene-1,4-disulfonamide] |  | 4020 nM | 
CN(c1cc(C(F)(F)F)ccc1NS(=O)(=O)c1ccc(S(=O)(=O)N(C)C)cc1)C1CCCCC1 [Compound 116, N1-(2-(cyclohexyl(methyl)amino)-4-(trifluoromethyl)phenyl)-N4,N4-dimethylbenzene-1,4-disulfonamide] |  | 1030 nM | 
